This note sets out measurements from US10751356B2, “Compositions and methods for transient up-regulation of Myc in B-cell lymphomas for enhancing P53 independent apoptotic responses to chemotherapy” (THE CHILDREN'S HOSPITAL OF PHILADELPHIA, priority 2013, dated 2020).

For experiment [1], the system named is Myc/p53ER™ cells. As to the kind of experiment: Apoptosis of Myc/p53ER B-lymphoma cells (FIGS. 1-3). The experiment is classed as cell-based, mice. From the text: Because many Myc-driven tumors are defective for p53 activity, we sought to determine whether transient up-regulation of Myc also increases cell death in response to chemotherapeutic drugs in a p53-deficient background. For this purpose, we used B-lymphoma cells isolated from bone marrows of p53ER™ knock-in mice and subsequently transduced with a Myc-expressing retrovirus (2,3). This inducible system allowed us to distinguish between p53-dependent (cells treated with tamoxifen) and independent (no tamoxifen added) cell death. Additionally, instead of modulating Myc levels through miRNA inhibitors, which currently have limited clinical utility, we increased Myc stability with a small molecule inhibitor of GSK3β, which promotes proteosomal degradation of Myc. […] To validate this effect in a more relevant setting, we inhibited GSK3β in various Burkitt's lymphoma cell lines and achieved consistent up-regulation of Myc.

The subject of experiment [2] is Raji cells. As to the kind of experiment: Immunoblotting of Raji cells treated with TRAIL with or without CHIR-99021 (FIG. 9A). In kind it is cell-based, human. As to the method:
(§1) Raji cells were treated with indicated concentrations of TRAIL for 16 h in the presence or absence of CHIR-99021. (FIG. 9A) Immunoblotting with antibodies to detect cleavage of PARP and caspase-8, as well as Myc, beta-catenin and loading controls Tutbulin, Actin and GAPDH. (FIG. 9B) Caspase-3/7 activity were measured using the bioluminescent-based Caspase-3/7 Glo Kit (Promega). Fold increase in caspase activities relative to untreated cells, are shown for cells treated with TRAIL alone (light grey bars) or with TRAIL and CHIR-99021 (dark grey bars).
(§2) This finding is relevant since, as mentioned above, Threonine-58 is a hot spot for mutations in Burkitt's lymphoma (Smith-Sorensen et al, JBC 1996).
(In western blotting, separated proteins are transferred to a membrane and probed.)

Experiment [3] relates to Myc. As to the kind of experiment: Myc stabilization in B lymphoma cell lines with WT or mutant Myc-Thr58 treated with CHIR-99021 (FIG. 7). Conditions: B lymphoma cell lines with WT-Myc-Thr58 or Mut-Myc-Thr58, treated for indicated periods of time. The experiment is classed as cell-based. The procedure:
FIG. 7: Stabilization of Myc by GSK3-inhibitors requires retention of the Myc-Threonine 58 residue: B lymphoma cell lines with WT-Myc-Thr58 (left panel) or Mut-Myc-Thr58 (right panel) were treated with CHIR-99021 for indicated periods of time.
As discussed above, treatment of Ramos cells [mutant for p53 and wild type for Myc (intact Threonine-58)] with GSK3-inhibitors increases the apoptotic response to drugs used to treat B cell lymphomas and leukemias within the CHOP-chemotherapeutic regimen: vincristine and doxorubicin. In our model, GSK3 inhibitors prevent phosphorylation of Myc at its Thr-58 residue by GSK3, inhibiting Myc degradation and inducing a transient stabilization and increase in the amount of the Myc protein. It has previously been shown that Myc-Thr58 is a hot spot for mutations in Burkitt's Lymphoma (Smith-Sorensen et al, JBC 1996), and when Myc-Thr58 is altered, the effect of transient stabilization induced by GSK3-inhibitors is lost (FIG. 7). Thus, cooperation of GSK3-inhibitors and chemotherapeutic drugs require retention of the Myc-Threonine-58 residue.

The test system of experiment [4] is Raji cells. As to the kind of experiment: Caspase-3/7 Glo activity in Raji cells treated with TRAIL with or without CHIR-99021 (FIG. 9B). The experiment is classed as cell-based, human. Conditions: increasing concentrations of TRAIL in presence or absence of CHIR-99021. As to the method: as §1, §2
Experiment [5] relates to Ramos cells. As to the kind of experiment: Yo-Pro flow cytometry of Ramos cells, apoptotic response to TRAIL (FIG. 8). The conditions noted are these: Ramos cells pre-treated with CHIR99021 for 2 hours followed by 5 h of TRAIL. The experiment is classed as cell-based, human. The procedure: Ramos cells where left untreated (top-left panel), treated with TRAIL for 5 h (top-right panel), treated with CHIR99021 alone (bottom-left panel) or pre-treated with CHIR99021 for 2 hours followed by 5 h of TRAIL (bottom-right panel). Percentage of death cells was measured by incorporation of the nuclear staining Yo-Pro. Percentages of living and apoptotic cells are shown in the M4 and M5 gates respectively. […] TRAIL engages the extrinsic apoptotic pathway, activating Caspase-8, and is currently in clinical trials for the treatment of different oncological malignancies (reviewed in Stuckey and Shah, Trends in Mol Med 2013).
Background: A flow cytometer gives signals particle by particle.

With `CC/C(=C(\c1ccccc1)c1ccc(OCCN(C)C)cc1)c1ccccc1` [tamoxifen], the “apoptosis by activation of p53” value in experiment [1] (tamoxifen added, without doxorubicin or modulation of Myc) is on record as “sufficient to induce robust apoptosis”.
As for `Cc1c[nH]c(-c2cnc(NCCNc3ccc(C#N)cn3)nc2-c2ccc(Cl)cc2Cl)n1` [CHIR-99021, 6-{2-[4-(2,4-dichlorophenyl)-5-(4-methyl-1H-imidazol-2-yl)-pyrimidin-2-ylamino]ethyl-amino}nicotinonitrile], in experiment [2] (Raji cells pre-treated with CHIR-99021 followed by TRAIL vs TRAIL only), the “cleaved caspase 8 and cleaved PARP by immunoblotting” value is “increase in the amount of cleaved caspase 8 and cleaved PARP”. Also, the “apoptotic response to TRAIL” value in experiment [2] (Raji cells, TRAIL for 16 h in presence or absence of CHIR-99021) is reported as “increases the apoptotic response to TRAIL”. Also, in experiment [2] (Raji cells, immunoblotting), the levels of beta-catenin entry is “increased levels of beta-catenin” and the “levels of mutant Myc” value is “remain constant”. Moreover, in experiment [2] (Raji cells, no functional p53 and mutant Myc-thr58), the “cell death with TRAIL and CHIR-99021” value is “killed Raji cells”. Also, the “stabilization of Myc” value in experiment [3] is reported as “induces stabilization of Myc only when the Myc-Thr-58 residue is retained”. Further, the “caspase 3 activity” value in experiment [4] is reported as “higher levels of caspase-3 activity”. The “apoptotic response to TRAIL (percentage of dead cells by Yo-Pro)” value in experiment [5] is “increases the apoptotic response to TRAIL”.
Regarding `COc1cccc2c1C(=O)c1c(O)c3c(c(O)c1C2=O)C[C@@](O)(C(=O)CO)C[C@@H]3O[C@H]1C[C@H](N)[C@H](O)[C@H](C)O1` [doxorubicin], the “cell killing / apoptosis” value in experiment [1] (absence of active p53 (no tamoxifen)) is “cell killing was rather inefficient”.
